Data reported in patent US12102432B2, “Uses of transdermal glomerular filtration rate measurement in continuous renal replacement therapy” (MediBeacon Inc., priority 2018, dated 2024).

Columns and labels:
[1] = In vitro continuous hemofiltration (CVVH) model, sieving coefficient; format: in vitro ADME, bovine; settings: for Mean sieving coefficient: CVVH
Protocol: The procedure for the CVVH study was conducted using the model CVVH system illustrated in FIG. 5. The CLTM of urea and MB-102 were evaluated with different blood flow rates, ultrafiltration rate (Quf) and hemodiafilters (Table 1). In a closed-loop system, the formed effluent was returned to the blood as a post-filter replacement fluid downstream from the post-hemodiafilter blood sampling port. Pre- and post-hemodiafilter blood samples, and effluent samples were collected concurrently. Six experiments were conducted for each hemodiafilter, and new hemodiafilters and CRRT apparatus were used for each experiment. Sieving coefficient (SC) and CLTM were calculated as follows:
[formula] where Sc is the sieving coefficient; Cuf is the concentration in the effluent; Ca is the concentration of the solute in the pre-filter; and Cv is the concentration of the solute in the post-filter. CLconv=SC×QUF Equation (4) wherein CLconv is the convective clearance for the post-filter replacement; QUF is the ultrafiltration rate.
(§1) All blood samples were collected and centrifuged at 3000 rpm for 10 minutes. The plasma and effluent samples were transferred to cryovials in duplicate and stored at −80° C. until analysis. BUN concentrations were analyzed with Advia 1800 (Siemens Healthcare Diagnostic Inc., Tarrytown, N.Y., USA) having a lower limit of quantification of 5 mg/dL.
(§2) Similarly, six CVVH and CVVHD experiments with each hemodiafilter were used to detect a 25% difference in MB-102 CLTM between hemodiafilters. Assumptions used in these calculations included: a power of 90% and a standard deviation of 10% with a significance level of p<0.05. A two-tailed, unpaired t-test was used to compare differences between the two hemodiafilters, and the analysis of variance was used to compare different QUF and Qd within each hemodiafilter type.

[2] = In vitro continuous hemodialysis (CVVHD) model, saturation coefficient; format: in vitro ADME, bovine; settings: for Saturation coefficient (mean ± SD): blood flow 200 mL/min
Protocol: For CVVHD experiments, the CLTM was assessed using a previously validated in vitro CVVHD model as illustrated in FIG. 6. Commonly used effluent flow rates of 16, 33, 50, and 100 mL/min, and a blood flow rate of 200 mL/min were used. Effluent was prepared according to directions from the manufacturer by mixing sodium bicarbonate powder (NATURALYTE® 4000, Fresenius Medical Care, Waltham, Mass., USA) with distilled water in a 45:1 ratio. After adding MB-102 and urea to the blood, it was recirculated through the circuit for 5 min for uniform coating of the extracorporeal circuit. A single-pass mode of the CVVHD procedure with four different flow rates was run in random order for each hemodiafilter. Blood samples were collected from the pre- and post-filter ports, and spent effluent samples were taken from the effluent port 5 min after initiation of the CVVHD experiments at all four effluent flow rates. These experiments were conducted on 6 new hemodiafilters and CRRT tubing sets. Saturation coefficient (SA) and CLTM were calculated as follows:
[formula] CLdiff=(SA×Qd) Equation (6)
where SA is the saturation coefficient; CUF is the concentration in the effluent; Ca is the concentration of the solute in the pre-filter; CV is the concentration of the solute in the post-filter; CLdiff is the diffusion clearance for post-filter replacement; Qd is the effluent flow rate.
as §1, §2

[3] = In vivo clearance by CVVHD in porcine model with bilateral nephrectomy; parameters: species or system Swine
[4] = assembly on chest (QLS26), blood flow rate 100, effluent flow rate 20 mL/min, 1st of four regions
[5] = assembly on chest (QLS26), blood flow rate 200, effluent flow rate 35 mL/min, 2nd of four regions
[6] = assembly on chest (QLS26), blood flow rate 200, effluent flow rate 35 mL/min, 4th of four regions
[7] = assembly on sternum (QLS25), blood flow rate 100, effluent flow rate 20 mL/min, 1st of four regions
[8] = assembly on sternum (QLS25), blood flow rate 100, effluent flow rate 20 mL/min, 3rd of four regions
[9] = assembly on sternum (QLS25), blood flow rate 200, effluent flow rate 35 mL/min, 2nd of four regions
[10] = assembly on sternum (QLS25), blood flow rate 200, effluent flow rate 35 mL/min, 4th of four regions

Mean sieving coefficient ([1]; HF1400, ultrafiltration rate 16.7 mL/min): 1.14 ± 0.06
Mean sieving coefficient ([1]; HF1400, ultrafiltration rate 33.3 mL/min): 1.17 ± 0.03
Mean sieving coefficient ([1]; HF1400, ultrafiltration rate 50 mL/min): 1.18 ± 0.05
Mean sieving coefficient ([1]; M150, ultrafiltration rate 16.7 mL/min): 1.17 ± 0.12
Mean sieving coefficient ([1]; M150, ultrafiltration rate 33.3 mL/min): 1.17 ± 0.07
Mean sieving coefficient ([1]; M150, ultrafiltration rate 50 mL/min): 1.16 ± 0.07
Sieving coefficient (SC) ([1]; three different Quf, both hemodiafilters): approximately 1
Saturation coefficient (mean ± SD) ([2]; CVVHD, HF1400, Qd 16.7 mL/min): 1.27 ± 0.07
Saturation coefficient (mean ± SD) ([2]; CVVHD, HF1400, Qd 33.3 mL/min): 1.27 ± 0.09
Saturation coefficient (mean ± SD) ([2]; CVVHD, HF1400, Qd 50 mL/min): 1.37 ± 0.07
Saturation coefficient (mean ± SD) ([2]; CVVHD, HF1400, Qd 100 mL/min): 1.02 ± 0.20
Saturation coefficient (mean ± SD) ([2]; CVVHD, M150, Qd 16.7 mL/min): 1.06 ± 0.17
Saturation coefficient (mean ± SD) ([2]; CVVHD, M150, Qd 33.3 mL/min): 1.11 ± 0.06
Saturation coefficient (mean ± SD) ([2]; CVVHD, M150, Qd 50 mL/min): 1.60 ± 0.06
Saturation coefficient (mean ± SD) ([2]; CVVHD, M150, Qd 100 mL/min): 0.84 ± 0.04
Saturation coefficient (SA), overall summary in text ([2]; CVVHD, both hemodiafilters): approximately 1
mean SA values ([2]; low effluent flow rates (16-50 mL/min)): approximately unity
MB-102 Clearance Rate Constant [3, 4]: 0.1439 h⁻¹
RDTC [3, 4]: 6.94 h
RDTC ([3]; assembly on chest (QLS26), blood flow rate 100, effluent flow rate 20 mL/min, 3rd of four regions): 11.87 h
MB-102 Clearance Rate Constant [3, 5]: 0.1769 h⁻¹
RDTC [3, 5]: 5.65 h
MB-102 Clearance Rate Constant [3, 6]: 0.1192 h⁻¹
RDTC [3, 6]: 8.39 h
MB-102 Clearance Rate Constant [3, 7]: 0.1174 h⁻¹
RDTC [3, 7]: 8.52 h
MB-102 Clearance Rate Constant [3, 8]: 0.0871 h⁻¹
RDTC [3, 8]: 11.48 h
MB-102 Clearance Rate Constant [3, 9]: 0.1870 h⁻¹
RDTC [3, 9]: 5.35 h
MB-102 Clearance Rate Constant [3, 10]: 0.1288 h⁻¹
RDTC [3, 10]: 7.76 h
SMILES: Nc1nc(C(=O)N[C@H](CO)C(=O)O)c(N)nc1C(=O)N[C@H](CO)C(=O)O [MB-102, (2R,2′R)-2,2′-((3,6-diaminopyrazine-2,5-dicarbonyl)bis(azanediyl))bis(3-hydroxypropanoic acid)]
